Reference: patent US20210002231A1 (Centre National de la Recherche Scientifique, priority 2018, published 2021)

How the values were obtained:
C57BL/6N mice = experiment: Naltrexone-precipitated withdrawal syndrome; type: in vivo; conditions: twice daily sc. for 7 days, KGFF09 7.4 μmol/kg; in comparison to the other compounds
Description: On day 7, two hours after the last drug injection, the withdrawal syndrome was precipitated by administration of naltrexone (5 mg/kg, sc.) and evaluated over 30 min. Jumping, paw tremors and wet dog shakes were recorded as number of events occurring during the total test time. Diarrhea was checked for 30 min with one point given for any signs of it during each 5 min period (maximum score: 6). Body weight was measured immediately before and after each 30 min test session, and percentage of body weight lost during the test was calculated. For each mouse, a global opiate withdrawal score was also calculated by summing the values obtained for each sign. For this purpose one point was assigned to every 3 jumps and 5 paw tremors, respectively, whereas all other signs were given the absolute values recorded during the test.

NPFF2R = NPFF2R (Homo sapiens, UniProt Q9Y5X5); experiment: Radioligand competition binding with [125I]-1-DMe-NPFF; set-up: expressed in transfected cells; HEK293-Glo20F cells (cAMP)
Sequence of NPFF2R (Q9Y5X5 whole entry): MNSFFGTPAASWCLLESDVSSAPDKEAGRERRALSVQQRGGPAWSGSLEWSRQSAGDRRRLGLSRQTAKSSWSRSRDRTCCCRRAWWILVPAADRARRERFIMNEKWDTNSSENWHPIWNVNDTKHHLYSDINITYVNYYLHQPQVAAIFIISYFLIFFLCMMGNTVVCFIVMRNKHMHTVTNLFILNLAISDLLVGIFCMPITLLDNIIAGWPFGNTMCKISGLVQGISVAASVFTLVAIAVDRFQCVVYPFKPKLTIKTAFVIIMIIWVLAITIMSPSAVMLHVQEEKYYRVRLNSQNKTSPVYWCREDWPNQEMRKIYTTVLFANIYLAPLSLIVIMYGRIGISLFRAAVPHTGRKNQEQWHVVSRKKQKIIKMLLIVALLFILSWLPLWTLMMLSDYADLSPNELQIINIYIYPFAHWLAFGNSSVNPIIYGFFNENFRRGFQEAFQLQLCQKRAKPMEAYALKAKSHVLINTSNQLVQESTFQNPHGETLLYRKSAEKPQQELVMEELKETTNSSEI

SMILES	global opiate withdrawal score, reduced to (C57BL/6N mice)	Ki (NPFF2R)
Cc1cc(O)cc(C)c1C[C@H](N)C(=O)N[C@H](CCCNC(=N)N)C(=O)N[C@H]1Cc2ccccc2CN(CCC(=O)N[C@@H](CCCN2CCC(Cc3ccccc3)CC2)C(=O)N[C@@H](Cc2ccccc2)C(N)=O)C1=O [KGFF09, H-Dmt-D-Arg-Aba-β-Ala-Bpa-Phe-NH2]	circa 50%	–
Cc1cc(O)cc(C)c1C[C@H](N)C(=O)N[C@H](CCCNC(=N)N)C(=O)N[C@H]1Cc2ccccc2CN(CCC(N)=O)C1=O [KGOP01, reference compound]	–	4.5 µM
